The values below are quoted from earlier work in PubChem BioAssay AID1259409 (Chemical Carcinogenesis Research Information System (CCRIS), 2018).

The data set concerns rodent chemically induced tumor inhibition, incidence and multiplicity. The data set can be described thus: CCRIS tumor inhibitor studies.

Consider `NC(N)=NC(=O)c1nc(Cl)c(N)nc1N`, for which the “tumour outcome (control, treated, inhibition, significance)” value is reported as 15/19 (79%), 13/17 (76%), 4%, not significant (Carcinogen: AZOXYMETHANE, 25843-45-2, Dose [Inhibitor]: 0, 5 MG/KG BW 1/2 D FOR 35 WK (STUDY DURATION: 35 WK), Route [Inhibitor]: SUBCUTANEOUS, Species: RAT, Strain/Sex: WISTAR/MALE, Target Tissue: Type of Lesion: COLON: TUMOR, Dose [Carcinogen]: 7.4 MG/KG BW 1/WK FOR 10 WK, Promoter: NONE USED); 15/19 (79%), 7/18 (39%), 51%, p<0.001 (Carcinogen: AZOXYMETHANE, 25843-45-2, Dose [Inhibitor]: 0, 7.5 MG/KG BW 1/2 D FOR 35 WK (STUDY DURATION: 35 WK), Route [Inhibitor]: SUBCUTANEOUS, Species: RAT, Strain/Sex: WISTAR/MALE, Target Tissue: Type of Lesion: COLON: TUMOR, Dose [Carcinogen]: 7.4 MG/KG BW 1/WK FOR 10 WK, Promoter: NONE USED); 10/20 (50%), 5/17 (29%), 42%, not significant (Carcinogen: N-METHYL-N'-NITRO-N-NITROSOGUANIDINE, 70-25-7, Dose [Inhibitor]: 0, 2.5 MG/KG BW 1/2 D BEGINNING 25 WK POST FIRST CARCINOGEN DOSE AND CONTINUING FOR DURATION OF STUDY (STUDY DURATION: 5, Route [Inhibitor]: SUBCUTANEOUS, Species: RAT, Strain/Sex: WISTAR/MALE, Target Tissue: Type of Lesion: STOMACH: ADENOCARCINOMA, Dose [Carcinogen]: 50 UG/ML IN DRINKING WATER FOR 25 WK, Promoter: NONE USED); 10/20 (50%), 3/20 (15%), 70%, p<0.05 (Carcinogen: N-METHYL-N'-NITRO-N-NITROSOGUANIDINE, 70-25-7, Dose [Inhibitor]: 0, 5 MG/KG BW 1/2 D BEGINNING 25 WK POST FIRST CARCINOGEN DOSE AND CONTINUING FOR DURATION OF STUDY (STUDY DURATION: 52, Route [Inhibitor]: SUBCUTANEOUS, Species: RAT, Strain/Sex: WISTAR/MALE, Target Tissue: Type of Lesion: STOMACH: ADENOCARCINOMA, Dose [Carcinogen]: 50 UG/ML IN DRINKING WATER FOR 25 WK, Promoter: NONE USED).

For the molecule `C/C(=C\c1ccc(C(=O)O)cc1)c1cc2c(s1)CCCC2(C)C`, the “tumour outcome (control, treated, inhibition, significance)” value is, setting by setting: (Carcinogen: 7,12-DIMETHYLBENZ[A]ANTHRACENE, 57-97-6, Dose [Inhibitor]: 0.17 NMOL IN 0.2 ML ACETONE 1 HR PRIOR TO EACH PROMOTER DOSE FOR 12 WK (STUDY DURATION: 14 WK), Route [Inhibitor]: DERMAL, Species: MOUSE, Strain/Sex: SENCAR/FEMALE, Target Tissue: Type of Lesion: SKIN: PAPILLOMA, Dose [Carcinogen]: 200 NMOL IN 0.2 ML ACETONE ONCE, Promoter: 12-O-TETRADECANOYLPHORBOL-13-ACETATE, 16561-29-8) 100%, 100%, 0%, not calculated; (Carcinogen: 7,12-DIMETHYLBENZ[A]ANTHRACENE, 57-97-6, Dose [Inhibitor]: 0.17 NMOL IN 0.2 ML ACETONE 1 HR PRIOR TO EACH PROMOTER DOSE FOR 20 WK (STUDY DURATION: 22 WK), Route [Inhibitor]: DERMAL, Species: MOUSE, Strain/Sex: CD-1/FEMALE, Target Tissue: Type of Lesion: SKIN: PAPILLOMA, Dose [Carcinogen]: 200 NMOL IN 0.2 ML ACETONE ONCE, Promoter: 12-O-TETRADECANOYLPHORBOL-13-ACETATE, 16561-29-8) 94%, 89%, 5%, not calculated; (Carcinogen: 7,12-DIMETHYLBENZ[A]ANTHRACENE, 57-97-6, Dose [Inhibitor]: 1.7 NMOL IN 0.2 ML ACETONE 1 HR PRIOR TO EACH PROMOTER DOSE FOR 12 WK (STUDY DURATION: 14 WK), Route [Inhibitor]: DERMAL, Species: MOUSE, Strain/Sex: SENCAR/FEMALE, Target Tissue: Type of Lesion: SKIN: PAPILLOMA, Dose [Carcinogen]: 200 NMOL IN 0.2 ML ACETONE ONCE, Promoter: 12-O-TETRADECANOYLPHORBOL-13-ACETATE, 16561-29-8) 100%, 80%, 20%, not calculated; (Carcinogen: 7,12-DIMETHYLBENZ[A]ANTHRACENE, 57-97-6, Dose [Inhibitor]: 1.7 NMOL IN 0.2 ML ACETONE 1 HR PRIOR TO EACH PROMOTER DOSE FOR 20 WK (STUDY DURATION: 22 WK), Route [Inhibitor]: DERMAL, Species: MOUSE, Strain/Sex: CD-1/FEMALE, Target Tissue: Type of Lesion: SKIN: PAPILLOMA, Dose [Carcinogen]: 200 NMOL IN 0.2 ML ACETONE ONCE, Promoter: 12-O-TETRADECANOYLPHORBOL-13-ACETATE, 16561-29-8) 94%, 52%, 45%, not calculated; (Carcinogen: 7,12-DIMETHYLBENZ[A]ANTHRACENE, 57-97-6, Dose [Inhibitor]: 17 NMOL IN 0.2 ML ACETONE 1 HR PRIOR TO EACH PROMOTER DOSE FOR 12 WK (STUDY DURATION: 14 WK), Route [Inhibitor]: DERMAL, Species: MOUSE, Strain/Sex: SENCAR/FEMALE, Target Tissue: Type of Lesion: SKIN: PAPILLOMA, Dose [Carcinogen]: 200 NMOL IN 0.2 ML ACETONE ONCE, Promoter: 12-O-TETRADECANOYLPHORBOL-13-ACETATE, 16561-29-8) 100%, 3%, 97%, not calculated; (Carcinogen: 7,12-DIMETHYLBENZ[A]ANTHRACENE, 57-97-6, Dose [Inhibitor]: 17 NMOL IN 0.2 ML ACETONE 1 HR PRIOR TO EACH PROMOTER DOSE FOR 20 WK (STUDY DURATION: 22 WK), Route [Inhibitor]: DERMAL, Species: MOUSE, Strain/Sex: CD-1/FEMALE, Target Tissue: Type of Lesion: SKIN: PAPILLOMA, Dose [Carcinogen]: 200 NMOL IN 0.2 ML ACETONE ONCE, Promoter: 12-O-TETRADECANOYLPHORBOL-13-ACETATE, 16561-29-8) 94%, 0%, 100%, not calculated.
